Data from ChEMBL document CHEMBL1641570, “New hydroxystilbenoid derivatives endowed with neuroprotective activity and devoid of interference with estrogen and aryl hydrocarbon receptor-mediated transcription” (Bioorg Med Chem, 2011).

Tests used:
HT-22 [1] = assay: Neuroprotective activity in mouse HT22 cells assessed as protection against glutamate-induced oxytosis after 24 hrs by MTT assay; format: functional, cell-based; conditions: HT-22, 24 h
[2] = Antagonist activity at estrogen receptor in human Ishikawa cells assessed as inhibition of estradiol-induced alkaline phosphatase expression at 1 uM after 72 hrs relative to ICI182780; format: cell-based
[3] = Cytotoxicity against mouse HT22 cells assessed as cell viability at 1 uM after 3 days by LDH release assay relative to control; format: cell-based, HT-22; conditions: read-out: Activity
Ishikawa [4] = assay: Cytotoxicity against human Ishikawa cells by LDH release assay; format: cell-based
Estrogen receptor [5] = target: T1, Estrogen receptor (Homo sapiens, UniProt P03372); assay: (§1) Partial agonist activity at human ERalpha receptor expressed in human MCF7:D5L cells co-expressing ERE assessed as increase of estradiol-induced luciferase gene expression at 1 uM after 18 hrs relative to estradiol; format: cell-based; conditions: 18 h, 1 µM
T1 sequence (P03372 whole entry): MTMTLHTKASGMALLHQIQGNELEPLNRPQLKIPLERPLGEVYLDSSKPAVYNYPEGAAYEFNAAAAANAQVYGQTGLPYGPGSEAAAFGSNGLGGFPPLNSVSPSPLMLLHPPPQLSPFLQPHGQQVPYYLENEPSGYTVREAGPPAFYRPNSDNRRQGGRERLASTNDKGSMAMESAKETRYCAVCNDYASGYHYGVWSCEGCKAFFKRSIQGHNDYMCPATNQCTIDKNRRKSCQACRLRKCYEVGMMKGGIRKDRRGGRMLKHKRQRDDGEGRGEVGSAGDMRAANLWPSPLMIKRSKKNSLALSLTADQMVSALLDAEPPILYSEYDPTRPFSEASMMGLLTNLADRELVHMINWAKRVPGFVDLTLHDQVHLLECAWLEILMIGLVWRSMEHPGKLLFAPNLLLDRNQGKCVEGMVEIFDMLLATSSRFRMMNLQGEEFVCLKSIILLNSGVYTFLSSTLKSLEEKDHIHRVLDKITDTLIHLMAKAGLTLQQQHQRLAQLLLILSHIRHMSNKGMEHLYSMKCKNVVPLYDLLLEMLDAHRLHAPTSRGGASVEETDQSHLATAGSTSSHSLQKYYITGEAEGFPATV

[6] = target: Aryl hydrocarbon receptor (Mus musculus) (UniProt P30561); assay: Activity at AhR expressed in mouse H1L1.1c2 cells co-expressing XRE assessed as increase of benzo[b]fluoranthene-induced luciferase gene expression at 1 uM after 72 hrs
[7] = (§2) Agonist activity at estrogen receptor in human Ishikawa cells assessed as increase of estradiol-induced alkaline phosphatase expression at 1 uM after 72 hrs relative to estradiol; format: cell-based; conditions: ishikawa, 72 h, 1 µM
Estrogen receptor beta [8] = target: T2, Estrogen receptor beta (Homo sapiens, UniProt Q92731); assay: Agonist activity at human ERbeta receptor expressed in human HEK293 cells co-expressing ERE assessed as increase of estradiol-induced luciferase gene expression at 1 uM after 18 hrs relative to estradiol; format: cell-based; conditions: for activity at 18 h, 1 µM: read-out: Activity; for Activity: hek293, 18 h, 1 µM
Ishikawa [9] = assay: Cytotoxicity against human Ishikawa cells at 1 uM by LDH release assay; format: cell-based
HT-22 [10] = assay: Neuroprotective activity in mouse HT22 cells assessed as protection against glutamate-induced oxytosis after 24 hrs by MTT assay relative to resveratrol; format: functional
Estrogen receptor [11] = target: T1, Estrogen receptor; assay: Antagonist activity at human ERalpha receptor expressed in human MCF7:D5L cells co-expressing ERE assessed as inhibition of estradiol-induced of luciferase gene expression at 1 uM after 18 hrs relative to ICI182780; format: cell-based
MCF7 = assay: Antiproliferative activity against human stradiol-stimulated MCF7 cells at 1 uM after 96 hrs by MTT assay; format: cell-based; conditions: mcf7, 96 h
Estrogen receptor beta [12] = target: T2, Estrogen receptor beta; assay: Antagonist activity at human ERbeta receptor expressed in human HEK293 cells co-expressing ERE assessed as inhibition of estradiol-induced of luciferase gene expression at 1 uM after 18 hrs relative to ICI182780; format: cell-based; conditions: hek293, 18 h
estrogen receptor alpha = target: T3, estrogen receptor alpha (Homo sapiens, UniProt P03372); assay: as §1; format: cell-based; conditions: read-out: Activity
T3 sequence (P03372 whole entry): T1 sequence (P03372 whole entry)

[13] = target: Aryl hydrocarbon receptor (Mus musculus) (UniProt P30561); assay: Activity at AhR expressed in mouse H1L1.1c2 cells co-expressing XRE assessed as induction luciferase gene expression at 1 uM after 72 hrs relative to benzo[b]fluoranthene
estrogen receptor [14] = assay: as §2; format: cell-based; conditions: Ishikawa cells, read-out: Activity
[15] = target: Aryl hydrocarbon receptor (Mus musculus) (UniProt P30561); assay: Activity at AhR expressed in mouse H1L1.1c2 cells co-expressing XRE assessed as induction luciferase gene expression at 10 nM after 72 hrs

Chain of Aryl hydrocarbon receptor (Mus musculus) (P30561 whole entry, looked up): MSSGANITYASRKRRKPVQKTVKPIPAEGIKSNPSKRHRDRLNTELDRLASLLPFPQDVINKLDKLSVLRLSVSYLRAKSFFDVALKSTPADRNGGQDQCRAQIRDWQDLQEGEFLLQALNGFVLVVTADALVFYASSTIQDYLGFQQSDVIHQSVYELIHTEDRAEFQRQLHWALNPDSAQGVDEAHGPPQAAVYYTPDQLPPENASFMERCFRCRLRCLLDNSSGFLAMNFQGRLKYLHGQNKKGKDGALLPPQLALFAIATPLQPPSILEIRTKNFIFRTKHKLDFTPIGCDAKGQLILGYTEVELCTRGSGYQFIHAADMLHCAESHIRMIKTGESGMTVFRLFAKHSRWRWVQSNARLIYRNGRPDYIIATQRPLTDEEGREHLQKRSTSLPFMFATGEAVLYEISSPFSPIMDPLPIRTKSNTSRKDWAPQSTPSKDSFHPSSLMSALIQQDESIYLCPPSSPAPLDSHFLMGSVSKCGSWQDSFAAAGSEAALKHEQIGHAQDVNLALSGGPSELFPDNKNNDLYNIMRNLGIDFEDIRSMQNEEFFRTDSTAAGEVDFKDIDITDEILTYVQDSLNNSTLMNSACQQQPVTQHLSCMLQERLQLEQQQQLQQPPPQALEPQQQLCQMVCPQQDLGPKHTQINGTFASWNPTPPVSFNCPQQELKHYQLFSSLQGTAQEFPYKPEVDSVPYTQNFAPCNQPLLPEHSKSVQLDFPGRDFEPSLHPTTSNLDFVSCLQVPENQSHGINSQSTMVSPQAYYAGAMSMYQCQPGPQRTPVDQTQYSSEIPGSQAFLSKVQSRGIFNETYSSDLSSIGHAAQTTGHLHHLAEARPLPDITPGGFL
T2 sequence (Q92731 whole entry): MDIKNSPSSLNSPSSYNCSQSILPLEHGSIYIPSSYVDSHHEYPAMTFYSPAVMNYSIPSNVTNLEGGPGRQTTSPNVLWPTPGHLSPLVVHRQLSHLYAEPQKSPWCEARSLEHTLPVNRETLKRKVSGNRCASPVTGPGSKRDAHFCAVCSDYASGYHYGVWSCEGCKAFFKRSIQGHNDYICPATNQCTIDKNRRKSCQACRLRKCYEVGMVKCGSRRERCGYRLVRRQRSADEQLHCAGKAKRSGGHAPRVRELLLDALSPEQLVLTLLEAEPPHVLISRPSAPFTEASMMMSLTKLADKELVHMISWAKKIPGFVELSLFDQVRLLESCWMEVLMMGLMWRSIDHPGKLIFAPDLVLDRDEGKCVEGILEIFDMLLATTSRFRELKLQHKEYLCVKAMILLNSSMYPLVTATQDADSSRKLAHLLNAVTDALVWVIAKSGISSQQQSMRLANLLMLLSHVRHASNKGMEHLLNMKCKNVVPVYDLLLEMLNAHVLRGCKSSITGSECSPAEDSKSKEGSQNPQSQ

SMILES | Activity [2] | Activity (Estrogen receptor [5]) | Activity [6] [%] | Activity [7] | activity at 18 h, 1 µM (Estrogen receptor beta [8]) [%] | Activity (Estrogen receptor [11]) | Activity (Estrogen receptor beta [8]) | Activity (Estrogen receptor beta [12]) | activity at 18 h, 1 µM (estrogen receptor alpha) [%] | Ratio [13] | activity at 72 h, 1 µM (estrogen receptor [14]) [%] | EC50 (HT-22 [1]) [nM] | percent cytotoxicity (LDH release relative to control) at 72 h, 1 µM [3] [%] | Activity (Ishikawa [4]) | Activity (Ishikawa [9]) | Ratio EC50 (HT-22 [10]) | Activity (MCF7) | Activity [15] [%]
Oc1ccc(/C=C/C=C/c2cc(O)cc(O)c2)cc1 |  | Not Active | 1.7 |  | 66 | Not Active |  |  |  |  |  | 3310 | 8 |  | Toxic | 1.4 |  | 
COc1c(C(C)(C)C)cc(/C=C/c2cc(C(C)(C)C)c(O)c(C(C)(C)C)c2)cc1C(C)(C)C |  |  |  |  |  |  |  |  |  |  |  | > 10000 |  |  |  | <1 |  | 
CC(C)(C)c1cc(/C=C/c2cc(C(C)(C)C)c(O)c(C(C)(C)C)c2)cc(C(C)(C)C)c1O | Not Active | Not Active | 1.4 | Not Active |  | Not Active | Not Active | Not Active |  |  |  | 399 | 1.3 | Non-toxic |  | 12 |  | 
COc1c(C(C)(C)C)cc(/C=C/c2cc(O)cc(O)c2)cc1C(C)(C)C |  |  |  |  |  |  |  |  |  |  |  | 621 |  |  |  | 7.5 |  | 
COc1c(C(C)(C)C)cc(/C=C/C=C/c2cc(O)cc(O)c2)cc1C(C)(C)C |  |  |  |  |  |  |  |  |  |  |  | 410 |  |  |  | 11 |  | 
c1ccc2c(c1)-c1cccc3c1c-2cc1ccccc13 [BENZO[B]FLUORANTHENE] |  |  |  |  |  |  |  |  |  |  |  |  |  |  |  |  |  | 13.1
COc1cc(O)cc(/C=C/c2cc(C(C)(C)C)c(O)c(C(C)(C)C)c2)c1 |  |  |  |  |  |  |  |  |  |  |  | 258 |  |  |  | 18 |  | 

More lines, main results first:

Activity [2] | Activity (Estrogen receptor [5]) | Activity [6] [%] | Activity [7] | activity at 18 h, 1 µM (Estrogen receptor beta [8]) [%] | Activity (Estrogen receptor [11]) | Activity (Estrogen receptor beta [8]) | Activity (Estrogen receptor beta [12]) | activity at 18 h, 1 µM (estrogen receptor alpha) [%] | Ratio [13] | activity at 72 h, 1 µM (estrogen receptor [14]) [%] | SMILES | EC50 (HT-22 [1]) [nM] | percent cytotoxicity (LDH release relative to control) at 72 h, 1 µM [3] [%] | Activity (Ishikawa [4]) | Activity (Ishikawa [9]) | Ratio EC50 (HT-22 [10]) | Activity (MCF7) | Activity [15] [%]
Not Active | Not Active | 1.2 | Not Active |  |  |  |  |  |  |  | Oc1ccc(/C=C/c2cc(O)cc(O)c2)cc1 [RESVERATROL] | 4670 | 4 | Non-toxic |  |  |  | 
Not Active | Not Active | 1.5 | Not Active |  | Not Active | Not Active | Not Active |  |  |  | CC(C)(C)c1cc(/C=C/c2cc(O)cc(O)c2)cc(C(C)(C)C)c1O | 45 | -6.7 | Non-toxic |  | 104 | Non-toxic | 
Not Active |  | 1.6 | Not Active | 18 | Not Active |  | Not Active | 34 |  |  | CC(C)(C)c1cc(/C=C/C=C/c2cc(O)cc(O)c2)ccc1O | 91 | -8.7 | Non-toxic |  | 51 |  | 
Not Active | Not Active | 3 | Not Active |  | Not Active | Not Active | Not Active |  | 1.9 |  | CCC(CC)c1cc(/C=C/c2cc(O)cc(O)c2)cc(C(CC)CC)c1O | 30 | -6.7 | Non-toxic |  | 156 | Non-toxic | 
Not Active |  | 1.5 |  | 19 | Not Active |  | Not Active | 49 |  | 25 | CC(C)(C)c1cc(/C=C/c2ccc(O)cc2)ccc1O | 1060 | -5.3 | Non-toxic |  | 4.4 |  | 
Not Active |  | 1.7 |  |  | Not Active | Not Active | Not Active | 37 |  | 21 | CCC(CC)c1cc(/C=C/C=C/c2cc(O)cc(O)c2)ccc1O | 79 | -5 | Non-toxic |  | 59 |  | 
Not Active | Not Active | 1.6 | Not Active |  | Not Active | Not Active | Not Active |  |  |  | CC(C)(C)c1cc(/C=C/C=C/c2cc(O)cc(O)c2)cc(C(C)(C)C)c1O | 119 | -5.3 | Non-toxic |  | 39 |  | 
Not Active | Not Active | 2.2 | Not Active |  | Not Active | Not Active | Not Active |  |  |  | CCC(CC)c1cc(/C=C/C=C/c2cc(O)cc(O)c2)cc(C(CC)CC)c1O | 12 | -6 | Non-toxic |  | 389 | Non-toxic | 
Not Active | Not Active | 1.5 | Not Active |  | Not Active | Not Active | Not Active |  |  |  | CC(C)(C)c1cc(/C=C/c2cc(O)cc(O)c2)ccc1O | 484 | -6 | Non-toxic |  | 9.6 |  | 
Not Active |  | 1.7 |  |  | Not Active | Not Active | Not Active | 65 |  | 38 | CCC(CC)c1cc(/C=C/c2cc(O)cc(O)c2)ccc1O | 432 | -1 | Non-toxic |  | 11 |  | 
